Reference: ChEMBL document CHEMBL1138441, “3-Benzyl-1,3-oxazolidin-2-ones as mGluR2 positive allosteric modulators: Hit-to lead and lead optimization” (Bioorg Med Chem Lett, 2009)

What was measured:
[1] = Oral bioavailability in rat at 10 mg/kg; assay type: ADME, organism-based; details: in vivo
[2] = Ratio of drug level in mouse brain to plasma at 10 mg/kg, sc after 2 hrs; assay type: ADME, organism-based; design: dose 10 mg/kg, route subcutaneous
[3] = Volume of distribution at steady state in rat at 1 mg/kg, iv; assay type: ADME, organism-based; design: dose 1 mg/kg, route intravenous; details: in vivo, read-out: Vdss
[4] = Drug level in mouse brain at 10 mg/kg, sc after 2 hrs; assay type: ADME, organism-based; design: dose 10 mg/kg, route subcutaneous; details: read-out: Drug uptake
[5] = Plasma concentration in mouse at 10 mg/kg, sc after 2 hrs; assay type: ADME, organism-based; design: dose 10 mg/kg, route subcutaneous; details: read-out: Drug uptake
[6] = Plasma concentration in mouse at > 32 mg/kg, sc after 30 mins; assay type: ADME, organism-based; design: dose 32 mg/kg, route subcutaneous; details: read-out: Drug uptake
[7] = Drug level in mouse brain at > 32 mg/kg, sc after 30 mins; assay type: ADME, organism-based; design: dose 32 mg/kg, route subcutaneous; details: read-out: Drug uptake
[8] = Oral bioavailability in rat at 3 mg/kg; assay type: ADME, organism-based; details: in vivo
[9] = Permeability from apical to basolateral side of MDCK cells at 2 uM by MS based assay; assay type: ADME, cell-based, Canis lupus familiaris; details: dog
[10] = Ratio of drug level in mouse brain to plasma at > 32 mg/kg, sc after 30 mins; assay type: ADME, organism-based; design: dose 32 mg/kg, route subcutaneous

Row | bioavailability [1] | Kp at 2 h [2] | Vd [3] | concentration at 2 h [4] | concentration at 2 h [5] | concentration at 0.5 h [6] | concentration at 0.5 h [7] | bioavailability [8] | Papp A→B at 2 µM [9] | Kp at 0.5 h [10] | SMILES
1 | 64% | 3.7 | 3.2 L/kg | 2750 ng/g | 750 ng/mL | – | – | – | – | – | C[C@@H]1CN(Cc2ccc(-c3ccc(F)c(Cl)c3)cc2)C(=O)O1
2 | – | 2.1 | – | 2230 ng/g | 1070 ng/mL | – | – | – | – | – | C[C@@H]1CN(Cc2ccc(-c3ccc(F)cc3F)cc2)C(=O)O1
3 | – | – | 4.7 L/kg | – | – | 3550 ng/mL | 10100 ng/g | 100% | – | – | C[C@@H]1CN(Cc2ccc(-c3ccc(OC(F)(F)F)cc3F)nc2)C(=O)O1
4 | – | – | – | – | – | – | – | – | 12.3 ×10⁻⁶ cm/s | 3 | CC(Oc1ccc(CN2C[C@@H](C)OC2=O)cc1)C1CCCCC1 (single isomer, unassigned)
